Reference: patent US20090118174A1, “Novel peptides and methods for the treatment of inflammatory disorders” (Auckland Uniservices Limited, priority 2005, published 2009)
Like-named read-outs stand apart in the source and are kept apart here. No end group written: not given here.

Key:
[1] = tested on: αLβ2-mediated adhesion of Mn++-activated H9 cells to ICAM-1; test: Cell adhesion assay: adhesion of Mn2+-activated H9 cells to ICAM-1-Fc; type: cell-based, human; conditions: for inhibition of cell adhesion to ICAM-1 (in words): Mn++-activated H9 cells, cell-permeable fusion peptide; for blocking of adhesion (in words): at 100 μM
Protocol: The human T lymphoma cell line H9, was purchased from the American Type Culture Collection, Rockville, Md. It was cultured at 37° C. in 1640 medium supplemented with 50 U/ml penicillin, 50 μg/ml streptomycin, 200 μg/ml L-glutamine, 10% (v/v) FCS and 0.05 mM β-mercaptoethanol. All synthetic peptides were custom made by Mimotopes Pty Ltd., Victoria, Australia. The β2cyt peptides were N-terminally fused during synthesis to biotinylated penetratin (RQIKIWFQNRRMKWKK—Seq ID No. 22) or to a biotinylated D-isomeric form of an R9 polymer (Seq ID No. 32) to render them cell-permeable.
The soluble ICAM-1-Fc chimera was produced using the glutamine synthetase gene amplification system. The extracellular portions of human ICAM-1 fused to the Fc domain of human IgG1 were expressed from the pEE14 vector (kindly provided by Dr Chris Bebbington, Celltech Ltd, UK) in CHO K1 cells as described previously (18).
Lab-Tek 16-well glass slides (Nunc) or flat-bottom 96-well plates (Nunc Maxisorp) were coated overnight at 4° C. with purified ICAM-1-Fc at 10 μg/well in 100 μl of 0.1 M carbonate buffer (pH 9.5). After washing plates were blocked with 100% heat-inactivated FCS, and washed with Hanks balanced salt solution (HBSS) containing 10 mM Hepes, 2 mM Ca^2+ and 2 mM Mn^2+. H9 cells were either left unlabeled or labeled with the fluorescent dye chloromethyl fluorescein diacetate (CMFDA; Molecular Probes, Oregon). For peptide inhibition studies, H9 cells were preincubated with peptide in serum-free medium for 30 min at 37° C. and activated by suspension in an Mn^2+-containing buffer (HBSS: 10 mM Hepes containing 2 mM Ca^2+, 2 mM Mn^2+, and 2% FCS). Human IgG1 Ab (10 μg/ml; Sigma) was added to prevent nonspecific capture of cells to the Fc portion of […]. Cells were checked for viability by trypan blue exclusion, added to wells (10^6cells/well), and incubated for 30 min at 37° C. in a humidified atmosphere of 5% CO2. Non-adherent cells were removed by inverse centrifugation of the plates at 70×g for 5 min followed by gentle pipette washing. The number of unlabeled adherent cells was determined by counting the number of adherent cells in four independent fields at 100× magnification under an inverted microscope. The fluorescence of CMFDA-labeled adherent cells was measured using a VICTOR1420 multilabel counter (Wallac). Representative data are reported as mean±SD of two independent experiments performed in duplicate.

[2] = at 25 μM, Mn++-activated H9 cells to ICAM-1, fused to r9
[3] = at 50 μM, Mn++-activated H9 cells to ICAM-1, fused to r9
[4] = at 6 μM, H9 cells to ICAM-1, r9 fusion

Substance	inhibition of cell adhesion to ICAM-1 (in words) [1]	inhibition of adhesion [1, 2]	inhibition of adhesion [1, 3]	inhibition of adhesion [1, 4]	blocking of adhesion (in words) ([1]; H9 cells to ICAM-1, r9 fusion)	other results
KALIHLSDLREY	–	–	–	–	–	uptake of penetratin fusion peptide into cells (H9 cells): readily taken up
NPLFKSATTT (not fully specified (N-terminus); also: biotinylated r9 carrier, attachment not given here) [β2cyt peptide fused to r9 (biotinylated D-isomeric nine-arginine polymer) to render it cell-permeable]	active	~50%	~80%	–	–	–
VMNPKFAES (not fully specified (N-terminus); also: biotinylated r9 carrier, attachment not given here) [β2cyt peptide fused to r9 (biotinylated D-isomeric nine-arginine polymer) to render it cell-permeable]	active	~50%	~80%	–	–	–
YRRFEKEKLKSQWNND	–	–	–	–	–	uptake of penetratin fusion peptide into cells (H9 cells; human cell line H9, biotinylated peptide detected with streptavidin-FITC): readily taken up
r9-NPKF: core talin-binding motif of β2cyt synthesized as fusion with the r9 carrier peptide (not fully specified (N-terminus); printed as r9-NPKF)	–	–	–	82%	almost completely blocked adhesion	–
r9-NPLFKS: β2cyt hexamer synthesized as fusion with the r9 carrier peptide (not fully specified (N-terminus); printed as r9-NPLFKS)	–	–	–	24%	almost completely blocked adhesion	–
